Here are results for five molecules from patent publication US4402970A, “1,7-Dihydro-pyrrolo[3,4-e][1,4]diazepin-2(1H)-one derivatives” (Gruppo Lepetit S.p.A., priority 1981, dated 1983).

Data set [1] addresses benzodiazepine receptors. Description: benzodiazepine receptors test in vitro (displacement of 3H-Diazepam from rat brain receptors). Format: binding. Here is the method:
(§1) The anti-anxiety activity of the compounds of the present invention was first shown by submitting the compounds to the "benzodiazepine receptors" test both in vitro and in vivo.
(§2) The in vitro experiments were carried out by following the method described by H. Moler and T. Okada in Life Sciences Vol. 20, 2101-2110 (1977) while those in vivo were carried out according to the procedures illustrated by S. Lippa et al. in Pharmacol. Biochem. & Behaviour, Vol. 9, pp. 853-856 (1978).

In data set [2] the test system is benzodiazepine receptors. In words: benzodiazepine receptors test in vivo (displacement of 3H-Diazepam from rat brain receptors). Here is the method:
as §1, §2
In general terms: In a radioligand displacement assay an active substance lowers the binding of a labelled ligand.

In another data set the test system is rats. Description: potentiation of hexobarbital-induced sleeping time in rats (inducing activity). Format: in vivo. The following applies: for potentiation of hexobarbital-induced "sleeping time": same conditions, higher doses than 1 mg/kg p.o. Here is the method:
(§3) This is considered as an indication of the absence of inducing activity. These favorable pharmacological properties of the compounds of the present invention are accompanied by a low toxicity, lower than that of the prior-art compounds. As an example, while the acute oral toxicity of the prior-art 3,7-dihydro-6,7-dimethyl-5-phenylpyrrolo[3,4-e][1,4]diazepin-2(1H)-one in mice is about 500 mg/kg, that of the compound of example 5 of the present invention is comprised between 600 and 700 mg/kg and that of the compound of example 11 is higher than 20,000 mg/kg.

Data set [3] in a line: acute oral toxicity in mice. The settings on record: mouse, in vivo. Here is the method: as §3
Data set [4] concerns mice (pentylenetetrazole-induced death). In words: antipentylenetetrazole bioassay in mice (anticonvulsant activity). Format: in vivo. The settings on record: oral; for ED50: Mus musculus, 2 h. Here is the method: To evaluate the anticonvulsant activity the compounds of the present invention have been submitted to the antipentylenetetrazole bioassay in mice. The experiments have been carried out by following essentially the methodology described by Berger in J. Pharm. Exptl. Ther. 104, 468, (1952). More particularly, a fatal dose of pentylenetetrazole (140 mg/kg s.c.) was administered to groups of ten mice each, treated, 30 minutes before the administration of the convulsant agent, with a selected dose of the potential anticonvulsant compound. […] Since the animals of the control group died within 30 minutes, the effectiveness of the compounds tested, at each dose tested, was expressed as the number of animals of the group which were still alive two hours after the administration of pentylenetetrazole, out of the total number of animals of the group (10).
By testing each compound at different doses, the corresponding ED50, i.e. the dose at which 50% of the treated animals are protected, was calculated.
The same test was carried out also with 3,7-dihydro-6,7-dimethyl-5-phenyl-pyrrol[3,4-e][1,4]diazepin-2 (1H)-one (IX) [drawing 13]

The test system of a further data set is monkeys. Description: taming effect test on naturally vicious and aggressive monkeys. Format: in vivo. The following applies: oral dose of 1 mg/kg. The text has this:
Another behavioural test which confirmed the anti-anxiety properties of the compounds of the present invention was the so-called "taming effect" test carried out on naturally vicious and aggressive monkeys.
The "taming effect" on monkeys is one of the most meaningful and reliable parameters with which the anti-anxiety properties of a compound can be investigated. […] A true "taming effect", as an indication of the anti-anxiety properties of a compound not ascribable to CNS-depression, is reached when the animals become docile and friendly so as to accept food from the observer's hand.

The mark [5] stands for this setting: 30 minutes before pentylenetetrazole 140 mg/kg s.c., survival at two hours, read-out: ED50 (dose at which 50% of the treated animals are protected).

The structures appear in SMILES notation. Where two headings read alike, the source gives them in different places.

For the molecule `Cc1c2c(cn1C)NC(=O)C(O)N=C2c1ccccc1` (stereo not shown) [Example 5, 1,7-Dihydro-3-hydroxy-6,7-dimethyl-5-phenyl-pyrrolo[3,4-e][1,4]diazepin-2(1H)-one], the Ki (as a rule, the dissociation constant of the complex between target and ligand, obtained from inhibition or displacement) on benzodiazepine receptors [1] stood at 45.9 nM. In addition, the “"in vivo" % inhibition at 1 mg/kg/os” value in the data set with benzodiazepine receptors [2] is on record as -45%. Further, the “potentiation of hexobarbital-induced "sleeping time"” value in the data set with rats is listed as “did not show this potentiating effect even at higher doses”. In addition, the LD50 (usually the dose at which mortality reaches 50%) in data set [3] lay within 600 to 700 mg/kg.

`CC(=O)OC1N=C(c2ccccc2Cl)c2c(cn(C)c2C)NC1=O` (stereo not shown) [Example 9, 5-(2-chlorophenyl)-3-acetoxy-1,7-dihydro-6,7-dimethylpyrrolo[3,4-e][1,4]diazepin-2-(1H)-one]: the ED50 (commonly the dose at which the effect has come halfway, by size or by number of responders) in data set [4] (setting [5]) came to 7.5 mg/kg.

As to `Cc1c2c(cn1C)NC(=O)C(O)N=C2c1ccccc1Cl` (stereo not shown) [Example 10], the ED50 in data set [4] (setting [5]) came to 7.5 mg/kg. Besides, in the data set on monkeys, the “treated animals displaying a true "taming effect"” value was “at least 50%”.

On to `Cc1c2c(cn1C)N(C)C(=O)C(O)N=C2c1ccccc1Cl` (stereo not shown) [Example 11, 5-(2-Chlorophenyl)-1,7-dihydro-3-hydroxy-1,6,7-trimethylpyrrolo[3,4-e][1,4]diazepin-2(1H)-one], for which the ED50 in data set [4] (setting [5]) came out at 5 mg/kg. The molecule further yielded a Ki at benzodiazepine receptors [1] of 2.82 nM. For the same molecule, in the data set on benzodiazepine receptors [2], the “"in vivo" % inhibition at 1 mg/kg/os” value is reported as -54%. Besides, the “treated animals displaying a true "taming effect"” value in the data set on monkeys is “at least 50%”. The “potentiation of hexobarbital-induced "sleeping time"” value in the data set on rats is “did not show this potentiating effect even at higher doses”. Moreover, the LD50 in data set [3] was > 20000 mg/kg.

As for `Cc1c2c(cn1C)NC(=O)CN=C2c1ccccc1` [IX, 3,7-dihydro-6,7-dimethyl-5-phenyl-pyrrol[3,4-e][1,4]diazepin-2 (1H)-one, reference compound], the ED50 in data set [4] (prior-art compound, calculated in the same way, read-out: ED50) is 15 mg/kg. Moreover, in data set [4] (comparison of ED50), the “anticonvulsant activity relative to the compounds of the present invention” value was “at least twice less active than the compounds of the present invention”. The molecule further showed a Ki on benzodiazepine receptors [1] of 97 nM. The “"in vivo" % inhibition at 1 mg/kg/os” value with benzodiazepine receptors [2] was -33%. In the data set on rats (p.o.), the “dose from which hexobarbital-induced "sleeping time" is potentiated” value is given as 1 mg/kg p.o. Also, the LD50 in data set [3] was ~500 mg/kg.
